This note sets out measurements from US20070123460A1, “Probiotic compounds from Lactobacillus GG and uses therefor” (THE UNIVERSITY OF CHICAGO, priority 2005, published 2007).

The subject of this test is Hsp72. In words: Hsp72 induction in YAMC cells, Western blot. As to conditions: inhibitor 2 hours before LGG-CM (15 minutes); harvest 4 hours later; SB203580 20 μM, SP600125 20 μM, PD98059 50 μM. Type of test: cell-based, mouse. The method, then: Prior to each study, cells were plated at a density of 2×10^5 per 60 mm tissue culture dish. For RNA preparation, cells were plated at a density of 7.5×10^5 cells per p100 mm dish. After 24 hours of growth at 33° C., the medium was replaced with IFN-free media and cells were moved to 37° C. (non-permissive conditions) for 24 hours to allow development of the differentiated colonocyte phenotype. […] Heat shock controls were heat-shocked at 42° C. for 23 minutes and then left at 37° C. for 2 hours before harvest.
Intestinal epithelial cells were treated with conditioned media from the probiotic LGG and then assayed for inducible heat shock protein expression. For Western blot analyses of expression, cells were washed twice and then scraped in ice-cold PBS (137 mM NaCl, 2.7 mM KCl, 8 mM Na2HPO4, pH 7.4). Cells were pelleted (14,000×g for 20 seconds at room temperature), then resuspended in ice-cold lysis buffer (10 mM Tris, pH 7.4, 5 mM MgCl2, 50 U/ml each of DNAse and RNAse, plus complete protease inhibitor cocktail (Roche Molecular Biochemicals, Indianapolis, Ind.)). Protein concentrations were determined using the bicinchoninic acid procedure (Smith et al., 1985). Samples were heated to 75° C. for 5 minutes after addition of 3× Laemmli Stop buffer, then stored at −80° C. until use.
Twenty micrograms of protein per lane were resolved on 12.5% SDS-PAGE. […]
In general terms: A western blot detects proteins with antibodies after separation by electrophoresis.

Consider `COc1cccc(-c2cc(=O)c3ccccc3o2)c1N` [PD98059], for which the “inhibition of LGG-CM-induced Hsp72 expression” value was “more modest effect”.
